Earlier results, collected in patent US12458027B2, “Glyphosate composition for dicamba tank mixtures with improved volatility” (Monsanto Technology LLC, priority 2013, dated 2025).

Settings: 25° C.

In the case of O=C(O)CNCP(=O)(O)O [Glyphosate acid, N-(phosphonomethyl)glycine], the solubility in water is listed as “about 1.16 wt. %”.
